Laboratory results reported in ChEMBL document CHEMBL4376896, “Synthesis of Novel Potent Archazolids: Pharmacology of an Emerging Class of Anticancer Drugs” (J Med Chem, 2020).
Calls of active or inactive are those of the source. The calls are words filed in the database; no cut-off is given here.

Columns and labels:
[1] = Inhibition of Manduca sexta V-type proton ATPase assessed as reduction in inorganic phosphate production pre-inucubated for 5 mins before Tris-ATP addition and measured after 2 mins
[2] = target: T1, Adenosine receptor A3 (Homo sapiens, UniProt P0DMS8); test: Displacement of [3H]PSB-11 from human A3 adenosine receptor expressed in CHO cell membranes incubated for 60 mins by liquid scintillation counting method
T1 sequence (P0DMS8 whole entry): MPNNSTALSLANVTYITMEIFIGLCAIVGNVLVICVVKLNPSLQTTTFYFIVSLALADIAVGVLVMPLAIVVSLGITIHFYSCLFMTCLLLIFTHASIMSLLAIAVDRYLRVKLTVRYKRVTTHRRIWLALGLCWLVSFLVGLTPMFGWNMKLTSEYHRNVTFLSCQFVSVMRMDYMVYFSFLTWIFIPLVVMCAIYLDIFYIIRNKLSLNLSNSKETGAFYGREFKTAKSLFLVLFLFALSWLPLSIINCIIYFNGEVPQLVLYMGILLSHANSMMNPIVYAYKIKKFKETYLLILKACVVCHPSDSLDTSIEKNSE

[3] = cells; conditions: Homo sapiens, 1321-N1, 72 h
Description: Growth inhibition of human 1321N1 cells incubated for 72 hrs by MTT assay

[4] = target: T2, Neutrophil elastase (Homo sapiens, UniProt P08246); test: Inhibition of human leukocyte elastase assessed as reduction in pNA release using chromogenic MeO-Suc-Ala-Ala-Pro-Val-pNA substrate measured over 10 mins by spectrophotometry
T2 sequence (P08246 whole entry): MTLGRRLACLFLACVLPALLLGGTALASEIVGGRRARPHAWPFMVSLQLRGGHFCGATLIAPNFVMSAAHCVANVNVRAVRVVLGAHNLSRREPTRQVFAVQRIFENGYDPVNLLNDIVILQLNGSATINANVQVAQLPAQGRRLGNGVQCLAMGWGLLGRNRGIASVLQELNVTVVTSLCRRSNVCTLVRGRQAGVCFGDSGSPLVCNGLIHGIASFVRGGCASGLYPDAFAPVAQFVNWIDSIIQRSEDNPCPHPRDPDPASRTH

[5] = target: T3, P2X purinoceptor 3 (Homo sapiens, UniProt P56373); test: Inhibition of human P2X3 assessed as reduction in agonist-induced intracellular Ca2+ concentration pre-incubated for 30 mins before agonist addition by calcium 5 dye based fluorescence assay; assay type: cell-based
T3 sequence (P56373 whole entry): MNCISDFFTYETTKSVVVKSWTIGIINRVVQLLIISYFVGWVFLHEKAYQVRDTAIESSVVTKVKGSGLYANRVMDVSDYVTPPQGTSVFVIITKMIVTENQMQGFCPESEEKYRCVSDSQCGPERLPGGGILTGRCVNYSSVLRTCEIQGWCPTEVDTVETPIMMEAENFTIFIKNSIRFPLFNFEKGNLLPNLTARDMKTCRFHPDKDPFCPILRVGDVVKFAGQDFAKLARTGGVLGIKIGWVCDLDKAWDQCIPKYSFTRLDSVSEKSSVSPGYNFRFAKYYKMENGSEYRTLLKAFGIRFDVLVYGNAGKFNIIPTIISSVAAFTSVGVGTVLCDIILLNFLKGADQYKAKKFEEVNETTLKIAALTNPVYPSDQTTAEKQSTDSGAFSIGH

[6] = target: P2Y purinoceptor 2 (Homo sapiens) (UniProt P41231); test: Inhibition of human P2Y2 assessed as reduction in agonist-induced intracellular Ca2+ concentration at 10 uM pre-incubated for 30 mins before agonist addition by FLUO-4 AM dye based fluorescence assay; assay type: functional, cell-based
[7] = target: P2X purinoceptor 3 (Homo sapiens) (UniProt P56373); test: Non-competitive inhibition of human P2X3 expressed in human 1321N1 cells assessed as reduction in maximal effect of ATP-induced intracellular Ca2+ concentration pre-incubated for 30 mins before agonist addition by calcium 5 dye based fluorescence assay; assay type: cell-based
[8] = species on record: Homo sapiens; test: Inhibition of Calcium channel (unknown origin) at 10 uM relative to control
[9] = target: Adenosine receptor A2b (Homo sapiens) (UniProt P29275); test: Inhibition of human A2B adenosine receptor incubated for 60 mins by liquid scintillation counting method
[10] = target: Trypsin (Homo sapiens) (UniProt P07477+P07478+P35030); test: Inhibition of trypsin (unknown origin) assessed as reduction in pNA release using chromogenic Suc-Ala-Ala-Pro-Arg-pNA substrate measured over 10 mins by spectrophotometry; assay type: protein assay
[11] = target: P2Y purinoceptor 6 (Homo sapiens) (UniProt Q15077); test: Inhibition of human P2Y6 assessed as reduction in agonist-induced intracellular Ca2+ concentration at 10 uM pre-incubated for 30 mins before agonist addition by FLUO-4 AM dye based fluorescence assay; assay type: functional, cell-based
[12] = target: Procathepsin L (Homo sapiens) (UniProt P07711); test: Inhibition of cathepsin L (unknown origin) assessed as reduction in pNA release using chromogenic Z-Phe-Arg-pNA substrate measured over 1 hr by spectrophotometry
[13] = target: Adenosine receptor A2a (Homo sapiens) (UniProt P29274); test: Inhibition of human A2A adenosine receptor incubated for 60 mins by liquid scintillation counting method
[14] = target: P2X purinoceptor 4 (Homo sapiens) (UniProt Q99571); test: Inhibition of human P2X4 assessed as reduction in agonist-induced intracellular Ca2+ concentration at 10 uM pre-incubated for 30 mins before agonist addition by FLUO-4 AM dye based fluorescence assay; assay type: cell-based
[15] = target: P2Y purinoceptor 11 (Homo sapiens) (UniProt Q96G91); test: Inhibition of human P2Y11 assessed as reduction in agonist-induced intracellular Ca2+ concentration at 10 uM pre-incubated for 30 mins before agonist addition by FLUO-4 AM dye based fluorescence assay; assay type: functional, cell-based
[16] = target: Chymotrypsin (Homo sapiens) (UniProt Q99895+P17538+P40313+Q6GPI1); test: Inhibition of chymotrypsin (unknown origin) assessed as reduction in pNA release using chromogenic Suc-Ala-Ala-Pro-Phe-pNA substrate measured over 12.5 mins by spectrophotometry; assay type: protein assay
[17] = target: P2Y purinoceptor 4 (Homo sapiens) (UniProt P51582); test: Inhibition of human P2Y4 assessed as reduction in agonist-induced intracellular Ca2+ concentration at 10 uM pre-incubated for 30 mins before agonist addition by FLUO-4 AM dye based fluorescence assay; assay type: functional, cell-based
[18] = target: P2Y purinoceptor 1 (Homo sapiens) (UniProt P47900); test: Inhibition of human P2Y1 assessed as reduction in agonist-induced intracellular Ca2+ concentration at 10 uM pre-incubated for 30 mins before agonist addition by FLUO-4 AM dye based fluorescence assay; assay type: functional, cell-based
[19] = target: P2X purinoceptor 2 (Homo sapiens) (UniProt Q9UBL9); test: Inhibition of human P2X2 assessed as reduction in agonist-induced intracellular Ca2+ concentration at 10 uM pre-incubated for 30 mins before agonist addition by FLUO-4 AM dye based fluorescence assay; assay type: cell-based
[20] = target: Uracil nucleotide/cysteinyl leukotriene receptor (Homo sapiens) (UniProt Q13304); test: Inhibition of human GPR17 at 10 uM by Oregon-green BAPTA-1/AM dye based calcium mobilization assay; assay type: functional
[21] = target: P2X purinoceptor 7 (Homo sapiens) (UniProt Q99572); test: Inhibition of human P2X7 assessed as reduction in agonist-induced intracellular Ca2+ concentration at 10 uM pre-incubated for 30 mins before agonist addition by FLUO-4 AM dye based fluorescence assay; assay type: cell-based
[22] = target: Adenosine receptor A1 (Homo sapiens) (UniProt P30542); test: Inhibition of human A1 adenosine receptor incubated for 60 mins by liquid scintillation counting method
[23] = target: P2X purinoceptor 1 (Homo sapiens) (UniProt P51575); test: Inhibition of human P2X1 assessed as reduction in agonist-induced intracellular Ca2+ concentration at 10 uM pre-incubated for 30 mins before agonist addition by calcium 5 dye based fluorescence assay; assay type: cell-based
[24] = target: Peroxisome proliferator-activated receptor gamma (Homo sapiens) (UniProt P37231); test: Inhibition of human PPARgamma at 10 uM relative to control
[25] = target: Cathepsin B (Homo sapiens) (UniProt P07858); test: Inhibition of cathepsin B (unknown origin) assessed as reduction in pNA release using chromogenic Z-Arg-Arg-pNA substrate measured over 1 hr by spectrophotometry
[26] = target: P2Y purinoceptor 12 (Homo sapiens) (UniProt Q9H244); test: Inhibition of human P2Y12 assessed as reduction in agonist-induced intracellular Ca2+ concentration at 10 uM pre-incubated for 30 mins before agonist addition by FLUO-4 AM dye based fluorescence assay; assay type: functional, cell-based
[27] = target: P2Y purinoceptor 14 (Homo sapiens) (UniProt Q15391); test: Inhibition of human P2Y14 assessed as reduction in agonist-induced intracellular Ca2+ concentration at 10 uM pre-incubated for 30 mins before agonist addition by FLUO-4 AM dye based fluorescence assay; assay type: functional, cell-based
[28] = Stability in CD1 mouse liver microsomes assessed as rapid demethylation at 1 uM; assay type: ADME, Microsome
[29] = Stability in CD1 mouse liver microsomes assessed as rapid oxidation at 1 uM; assay type: ADME, Microsome
[30] = Stability in human liver microsomes assessed as rapid hydroxylation at 1 uM; assay type: ADME, Microsome
[31] = Stability in human liver microsomes assessed as rapid oxidation at 1 uM; assay type: ADME, Microsome
[32] = Intrinsic clearance in CD1 mouse liver microsomes at 1 uM; assay type: ADME, Microsome; conditions: read-out: CLH
[33] = Stability in CD1 mouse liver microsomes assessed as rapid hydroxylation at 1 uM; assay type: ADME, Microsome
[34] = Stability in human liver microsomes assessed as rapid demethylation at 1 uM; assay type: ADME, Microsome

Procathepsin L (Homo sapiens), sequence (P07711 114-333 limits assumed): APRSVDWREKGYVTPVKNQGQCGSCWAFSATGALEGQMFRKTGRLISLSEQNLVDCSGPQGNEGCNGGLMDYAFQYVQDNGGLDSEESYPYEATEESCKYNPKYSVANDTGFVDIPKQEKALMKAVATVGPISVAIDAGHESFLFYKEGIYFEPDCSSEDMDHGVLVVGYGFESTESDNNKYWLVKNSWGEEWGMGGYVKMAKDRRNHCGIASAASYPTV
Adenosine receptor A2a (Homo sapiens), sequence (P29274 whole entry): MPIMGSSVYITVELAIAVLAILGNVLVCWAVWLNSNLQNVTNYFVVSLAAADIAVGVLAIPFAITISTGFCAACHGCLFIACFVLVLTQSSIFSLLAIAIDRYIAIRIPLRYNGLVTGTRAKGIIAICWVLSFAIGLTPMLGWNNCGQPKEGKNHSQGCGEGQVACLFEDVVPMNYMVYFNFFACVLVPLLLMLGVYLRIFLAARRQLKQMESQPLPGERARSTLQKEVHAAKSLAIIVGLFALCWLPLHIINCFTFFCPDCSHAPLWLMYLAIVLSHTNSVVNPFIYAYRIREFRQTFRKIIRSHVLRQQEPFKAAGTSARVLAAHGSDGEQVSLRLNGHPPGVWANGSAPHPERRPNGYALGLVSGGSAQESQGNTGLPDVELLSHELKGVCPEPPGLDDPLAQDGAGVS
P2Y purinoceptor 2 (Homo sapiens), sequence (P41231 whole entry): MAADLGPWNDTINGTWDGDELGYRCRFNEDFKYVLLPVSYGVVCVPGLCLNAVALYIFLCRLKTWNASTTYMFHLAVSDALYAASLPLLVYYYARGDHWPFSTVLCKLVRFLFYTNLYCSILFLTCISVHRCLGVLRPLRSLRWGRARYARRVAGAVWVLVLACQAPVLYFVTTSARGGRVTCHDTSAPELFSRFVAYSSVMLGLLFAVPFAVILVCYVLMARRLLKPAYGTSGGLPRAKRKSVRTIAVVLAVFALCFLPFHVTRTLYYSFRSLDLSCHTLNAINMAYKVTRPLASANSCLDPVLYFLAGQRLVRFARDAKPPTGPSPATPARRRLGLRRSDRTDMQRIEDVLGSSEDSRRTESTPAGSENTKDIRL
P2X purinoceptor 4 (Homo sapiens), sequence (Q99571 whole entry): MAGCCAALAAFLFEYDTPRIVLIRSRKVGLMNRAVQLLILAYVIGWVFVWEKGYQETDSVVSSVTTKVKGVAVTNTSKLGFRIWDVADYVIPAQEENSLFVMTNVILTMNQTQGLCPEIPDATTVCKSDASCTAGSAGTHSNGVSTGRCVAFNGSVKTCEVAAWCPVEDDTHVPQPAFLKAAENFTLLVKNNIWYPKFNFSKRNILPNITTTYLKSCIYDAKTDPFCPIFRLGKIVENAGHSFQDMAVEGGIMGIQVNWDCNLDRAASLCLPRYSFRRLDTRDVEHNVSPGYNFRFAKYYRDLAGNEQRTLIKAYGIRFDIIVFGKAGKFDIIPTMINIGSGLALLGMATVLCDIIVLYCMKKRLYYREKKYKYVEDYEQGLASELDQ
P2Y purinoceptor 6 (Homo sapiens), sequence (Q15077 whole entry): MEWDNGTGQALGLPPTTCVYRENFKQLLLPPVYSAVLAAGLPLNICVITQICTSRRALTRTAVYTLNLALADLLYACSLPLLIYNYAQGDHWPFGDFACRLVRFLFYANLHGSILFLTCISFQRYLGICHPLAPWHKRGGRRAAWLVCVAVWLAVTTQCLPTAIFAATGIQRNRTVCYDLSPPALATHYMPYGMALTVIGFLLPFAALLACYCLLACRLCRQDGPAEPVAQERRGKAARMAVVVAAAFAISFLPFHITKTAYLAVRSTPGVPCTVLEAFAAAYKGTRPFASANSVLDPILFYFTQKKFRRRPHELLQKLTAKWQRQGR
P2Y purinoceptor 11 (Homo sapiens), sequence (Q96G91 whole entry): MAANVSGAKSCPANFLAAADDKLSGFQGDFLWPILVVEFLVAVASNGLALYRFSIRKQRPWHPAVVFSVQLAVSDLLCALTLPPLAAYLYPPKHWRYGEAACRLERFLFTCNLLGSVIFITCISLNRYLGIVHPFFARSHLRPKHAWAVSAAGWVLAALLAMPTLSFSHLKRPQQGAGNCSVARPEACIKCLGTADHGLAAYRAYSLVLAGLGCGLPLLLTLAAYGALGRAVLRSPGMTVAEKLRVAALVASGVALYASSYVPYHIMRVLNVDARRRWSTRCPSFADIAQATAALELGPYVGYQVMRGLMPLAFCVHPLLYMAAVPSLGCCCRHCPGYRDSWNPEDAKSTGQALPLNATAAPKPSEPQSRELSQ
P2Y purinoceptor 1 (Homo sapiens), sequence (P47900 whole entry): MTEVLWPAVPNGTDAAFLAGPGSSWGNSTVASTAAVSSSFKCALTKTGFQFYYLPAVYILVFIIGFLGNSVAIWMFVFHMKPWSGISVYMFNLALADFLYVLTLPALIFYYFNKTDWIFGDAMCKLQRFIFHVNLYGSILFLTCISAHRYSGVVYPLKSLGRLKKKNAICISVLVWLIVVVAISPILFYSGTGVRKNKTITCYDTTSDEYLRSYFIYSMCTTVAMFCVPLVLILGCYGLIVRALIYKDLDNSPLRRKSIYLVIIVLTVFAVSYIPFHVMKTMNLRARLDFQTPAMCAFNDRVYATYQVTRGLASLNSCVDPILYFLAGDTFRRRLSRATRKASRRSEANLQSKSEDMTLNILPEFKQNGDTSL
P2Y purinoceptor 4 (Homo sapiens), sequence (P51582 whole entry): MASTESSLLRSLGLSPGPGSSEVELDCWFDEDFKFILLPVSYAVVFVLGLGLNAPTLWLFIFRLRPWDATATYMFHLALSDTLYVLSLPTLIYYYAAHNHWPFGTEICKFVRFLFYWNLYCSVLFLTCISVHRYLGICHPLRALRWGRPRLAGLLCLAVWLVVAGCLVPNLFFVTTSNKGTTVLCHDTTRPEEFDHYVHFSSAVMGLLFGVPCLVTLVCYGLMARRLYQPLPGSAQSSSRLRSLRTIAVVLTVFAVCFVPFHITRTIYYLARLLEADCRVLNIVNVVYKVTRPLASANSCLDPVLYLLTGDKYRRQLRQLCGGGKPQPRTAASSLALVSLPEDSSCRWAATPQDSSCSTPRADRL
P2X purinoceptor 7 (Homo sapiens), sequence (Q99572 whole entry): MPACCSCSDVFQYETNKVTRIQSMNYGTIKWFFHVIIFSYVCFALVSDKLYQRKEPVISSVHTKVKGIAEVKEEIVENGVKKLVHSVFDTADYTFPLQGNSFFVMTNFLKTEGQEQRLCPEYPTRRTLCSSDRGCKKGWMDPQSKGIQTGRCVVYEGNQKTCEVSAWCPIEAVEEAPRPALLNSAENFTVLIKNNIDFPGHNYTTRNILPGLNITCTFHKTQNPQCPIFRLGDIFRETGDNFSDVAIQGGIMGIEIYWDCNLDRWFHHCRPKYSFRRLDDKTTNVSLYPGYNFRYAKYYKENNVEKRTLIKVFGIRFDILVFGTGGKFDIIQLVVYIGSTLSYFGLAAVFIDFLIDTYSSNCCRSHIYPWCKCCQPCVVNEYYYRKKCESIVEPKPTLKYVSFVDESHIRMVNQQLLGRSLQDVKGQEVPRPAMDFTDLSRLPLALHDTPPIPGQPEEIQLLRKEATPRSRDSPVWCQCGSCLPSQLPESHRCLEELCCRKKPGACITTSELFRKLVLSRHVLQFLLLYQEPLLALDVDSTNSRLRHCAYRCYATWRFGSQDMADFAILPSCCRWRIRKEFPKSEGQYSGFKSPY
Peroxisome proliferator-activated receptor gamma (Homo sapiens), sequence (P37231 whole entry): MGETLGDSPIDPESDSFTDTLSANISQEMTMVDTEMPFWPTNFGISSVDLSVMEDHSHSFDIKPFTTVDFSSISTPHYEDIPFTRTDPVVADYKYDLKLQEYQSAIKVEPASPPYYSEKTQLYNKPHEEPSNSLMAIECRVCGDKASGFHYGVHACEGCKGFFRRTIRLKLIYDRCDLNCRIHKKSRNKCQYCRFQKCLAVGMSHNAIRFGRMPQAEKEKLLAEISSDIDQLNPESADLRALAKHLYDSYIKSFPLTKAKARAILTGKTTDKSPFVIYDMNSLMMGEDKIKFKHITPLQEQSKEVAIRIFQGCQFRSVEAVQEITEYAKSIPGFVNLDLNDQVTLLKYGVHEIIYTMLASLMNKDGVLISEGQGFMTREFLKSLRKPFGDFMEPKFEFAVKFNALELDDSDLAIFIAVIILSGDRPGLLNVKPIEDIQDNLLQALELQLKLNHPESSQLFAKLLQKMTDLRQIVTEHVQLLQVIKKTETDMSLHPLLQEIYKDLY
Adenosine receptor A1 (Homo sapiens), sequence (P30542 whole entry): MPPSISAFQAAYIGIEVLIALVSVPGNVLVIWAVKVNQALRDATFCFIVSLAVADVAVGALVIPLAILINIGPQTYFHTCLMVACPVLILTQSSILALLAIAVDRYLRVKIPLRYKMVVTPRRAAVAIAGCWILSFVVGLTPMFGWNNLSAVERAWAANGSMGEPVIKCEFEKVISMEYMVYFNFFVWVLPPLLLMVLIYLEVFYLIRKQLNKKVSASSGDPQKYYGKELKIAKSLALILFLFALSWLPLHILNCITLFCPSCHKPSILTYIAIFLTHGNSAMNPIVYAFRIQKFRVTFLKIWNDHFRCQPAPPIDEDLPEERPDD
Adenosine receptor A2b (Homo sapiens), sequence (P29275 whole entry): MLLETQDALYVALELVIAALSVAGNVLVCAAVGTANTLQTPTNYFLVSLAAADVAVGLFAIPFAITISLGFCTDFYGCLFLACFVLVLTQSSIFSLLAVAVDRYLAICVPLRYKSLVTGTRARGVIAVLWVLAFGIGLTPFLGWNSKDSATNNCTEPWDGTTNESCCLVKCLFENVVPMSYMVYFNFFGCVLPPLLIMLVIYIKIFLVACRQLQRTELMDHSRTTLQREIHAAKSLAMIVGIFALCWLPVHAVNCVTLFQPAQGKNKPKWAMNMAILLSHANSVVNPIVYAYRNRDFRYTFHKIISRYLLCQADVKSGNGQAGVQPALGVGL

CNC(=O)O[C@@H](CC(C)C)c1nc([C@H]2OC(=O)C/C=C/C(C)=C/[C@@H](O)[C@@H](C)\C=C(C)/C=C(C)\C=C\[C@@H](O)[C@H](C)[C@H](O)/C(C)=C/C=C/[C@@H]2C)cs1
IC50 [1]: 213 nM
Ki [2]: 1380 nM
IC50 [3]: 3050 nM
IC50 ([4]; read-out: IC50): 1540 nM
IC50 [5]: > 10000 nM

CNC(=O)O[C@@H](CC(C)C)c1nc([C@H]2OC(=O)[C@H](C)/C=C/C(C)=C/[C@@H](O)[C@@H](C)\C=C(C)/C=C(C)\C=C\[C@@H](O)[C@H](C)[C@H](OC)/C(C)=C/C=C/[C@@H]2C)cs1
IC50 [1]: 7.94 nM
Ki [2]: ≥ 10000 nM
IC50 [3]: 2.58 nM
IC50 ([4]; read-out: IC50): 595 nM
IC50 [5]: > 2000 nM

CO[C@@H]1/C(C)=C/C=C/CCOC(=O)C/C=C/C(C)=C/[C@@H](O)[C@@H](C)\C=C(C)/C=C(C)\C=C\[C@@H](O)[C@@H]1C
Ki [2]: 609 nM
IC50 ([4]; read-out: IC50): 5850 nM

CNC(=O)O[C@@H](CC(C)C)c1nc([C@@H](O)[C@@H](C)/C=C/C=C(\C)[C@@H](OC)[C@@H](C)[C@H](O)/C=C/C(C)=C\C(C)=C/[C@H](C)[C@H](O)/C=C(C)/C=C/CC(=O)OC)cs1
IC50 [1]: 352 nM
Ki [2]: 1610 nM
IC50 [3]: 296 nM
IC50 ([4]; read-out: IC50): 2340 nM
IC50 [5]: > 10000 nM

CNC(=O)O[C@@H](CC(C)C)c1nc([C@H]2OC(=O)[C@@H](C)/C=C/C(C)=C/[C@@H](O)[C@@H](C)\C=C(C)/C=C(C)\C=C\[C@@H](O)[C@H](C)[C@H](OC)/C(C)=C/C=C/[C@@H]2C)cs1
IC50 [1]: 5.52 nM
Ki [2]: 1140 nM
IC50 [3]: 2.16 nM
IC50 ([4]; read-out: IC50): 721 nM
IC50 [5]: 648 nM

CNC(=O)O[C@@H](CC(C)C)c1nc([C@H]2OC(=O)/C(C)=C/C/C(C)=C/[C@@H](O)[C@@H](C)\C=C(C)/C=C(C)\C=C\[C@@H](O)[C@H](C)[C@H](OC)/C(C)=C/C=C/[C@@H]2C)cs1 [ARCHAZOLID A]
inhibition [6]: inactive
inhibition [7]: Dose-dependent effect
inhibition [8]: 52%
IC50 [1]: 6.33 nM
inhibition [9]: inactive
Ki [2]: 967 nM
inhibition [10]: inactive
inhibition [11]: inactive
inhibition [12]: inactive
inhibition [13]: inactive
IC50 [3]: 0.253 nM
inhibition [14]: inactive
inhibition [15]: inactive
inhibition [16]: inactive
inhibition [17]: inactive
inhibition [18]: inactive
inhibition [19]: inactive
inhibition [20]: inactive
inhibition [21]: inactive
IC50 ([4]; read-out: IC50): 352 nM
inhibition [22]: inactive
inhibition [23]: inactive
inhibition [24]: 82%
IC50 [5]: 86.1 nM
inhibition [25]: inactive
inhibition [26]: inactive
inhibition [27]: inactive

CNC(=O)O[C@@H](CC(C)C)c1nc([C@H]2OC(=O)C/C=C/C(C)=C/[C@@H](O)[C@@H](C)\C=C(C)/C=C(C)\C=C\[C@@H](O)[C@H](C)[C@H](OC)/C(C)=C/C=C/[C@@H]2C)cs1 [ARCHAZOLID F]
Drug metabolism [28]: Metabolite_Detected
Drug metabolism [29]: Metabolite_Detected
IC50 [1]: 6.26 nM
Drug metabolism [30]: Metabolite_Detected
Ki [2]: 859 nM
inhibition [10]: inactive
inhibition [12]: inactive
Drug metabolism [31]: Metabolite_Detected
IC50 [3]: 4.51 nM
inhibition [16]: inactive
IC50 ([4]; read-out: IC50): 830 nM
IC50 [5]: 438 nM
inhibition [25]: inactive
microsomal CLint at 1 µM [32]: 271 µL/min/mg
Drug metabolism [33]: Metabolite_Detected
Drug metabolism [34]: Metabolite_Detected

CO/C1=C\C(C)=C\[C@@H](C)[C@@H](O)[C@@H](C)C/C(C)=C/C=C/[C@H](OC)[C@@H]([C@@H](C)[C@@H](O)[C@H](C)[C@@]2(O)C[C@@H](O)[C@H](C)[C@@H](C(C)C)O2)OC1=O [BAFILOMYCIN A1]
IC50 [1]: 10 nM
Ki [2]: 1080 nM
IC50 [3]: 3.06 nM
IC50 [4]: Not Active
IC50 [5]: 755 nM
